# Assay results as given in patent US9598667B2, “Use of metal ions for modulation of protein glycosylation profiles of recombinant proteins” (AbbVie, Inc., priority 2013, dated 2017).
# Experiments:
# [1] = tested on: N-glycan glycosylation profile of DVD-Ig (DVD 1) expressed in CHO cells; experiment: N-glycan oligosaccharide profile of DVD-Ig (DVD 1) from shake flask culture; format: cell-based, Chinese Hamster
# Method: Sodium citrate was included to provide additional evidence that the impact to the oligosaccharide profile with the prior experiments was a result of the iron addition. All conditions were performed in triplicate.
# [2] = tested on: N-glycan glycosylation profile of Antibody 1 expressed in CHO cells; experiment: N-glycan oligosaccharide profile of Antibody 1 from shake flask culture (2-AB labelling, normal phase HPLC); details: for galactosylation: Example 7
# Excerpt: (§1) To test the effect of metal ions of protein glycosylation, recombinant Chinese Hamster Ovary (CHO) cell lines (CHO DUX-B11 origin based on a DHFR (dihydrofolate reductase) expression system) expressing two different humanized monoclonal antibodies (Antibody 1, Antibody 2) or a dual variable domain immunoglobulin (DVD-Ig) were shake flask cultured in chemically defined basal medium (CDBM) and chemically defined feed medium (CDFM) supplemented with selected iron compounds. The cell lines were serially expanded through separate seed train inoculums to generate enough cells for inoculation. All supplemented cultures were performed in triplicate unless otherwise indicated.
# The glycosylation profile of the recombinantly expressed proteins was then determined using standard procedures. Approximately 200 μg of Protein A purified samples from Cell Lines 1 and 2 were then treated with N-glycanase at 37° C. overnight to remove the N-glycans from the protein. The protein was precipitated and the supernatant was taken for subsequent chemical derivatization of the reducing end of the released glycans with 2-aminobenzamide (2-AB) dye. Following the derivatization step, the excess labeled was removed using clean up cartridges and the samples were analyzed using normal phase HPLC with fluorescent detection. Mobile phase A was 100% acetonitrile and mobile phase B was 50 mM ammonium formate pH 4.4. The glycan were eluted from a polyamide column (Prozyme, Hayward, Calif.) using a shallow gradient. The labeled glycans were detected using a fluorescence detector with an excitation wavelength of 330 nm and an emission wavelength of 420 nm.
# Concentrations of the respective iron compounds were chosen so as to minimize any potential adverse impacts on cell growth and productivity, but still facilitate a measurable impact on the glycoform profile. […] Cell culture process performance indicators were monitored and measured throughout the respective cultures. Viable cell density, cell viability, harvest titer, and harvest N-glycan oligosaccharide data was measured and reported.
# By introducing iron to the culture via the feed medium, exposure to iron would be more gradual over the length of the culture. The impact to Antibody 1 was evaluated in triplicate shake flasks as described previously.
# All evaluations were performed in triplicate in shake flasks with the cell line expressing Antibody 1.
# The next set of experiments explored if iron transport into the cell or the galactose availability were the limiting factors. Recombinant transferrin (rTf) was added to triplicate shake flask cultures with the cell line expressing Antibody 1 with varying concentrations of ferric citrate. An independent experiment was performed with the same cell line to also determine if galactose supplementation in addition to iron and transferrin would enhance the galactosylation with triplicate shake flasks for each condition.
# [3] = tested on: N-glycan glycosylation profile of Antibody 1; experiment: N-glycan oligosaccharide profile of Antibody 1 in bioreactors; format: cell-based, Chinese Hamster; details: pH 6.90, dissolved oxygen 40% air saturation, two independent experiments
# Method: Prior experiments included iron supplementation in shake flask cultures. Experiments with the cell line expressing Antibody 1 and with a cell line expressing a different DVD-Ig (denoted DVD 2, also called ABT-122) than discussed previously were carried out to confirm the impact from iron supplements would be observed in bioreactors. Operating conditions were similar to shake flask experiments, but now included pH control at pH 6.90 and dissolved oxygen control at a setpoint of 40% air saturation. Antibody 1 bioreactors were run in triplicate with the exception of the 0.08 mM FC condition. DVD 2 bioreactors were run in duplicate.
# [4] = tested on: CHO cell line expressing Antibody 2; experiment: Shake flask fedbatch culture performance, cell line expressing Antibody 2; format: cell-based, Chinese Hamster; details: 0.1 or 1.0 mM in basal medium; vs unsupplemented control
# Excerpt: as §1
# Absolute concentrations were assigned with respect to reference standard calibration curves.
# The unsupplemented control was performed in duplicate.
# [5] = Example 2, vs unsupplemented control
compound,measurement,setting,value
"O=C([O-])CC(O)(CC(=O)[O-])C(=O)[O-].[Na+].[Na+].[Na+] [Sodium citrate, reference compound]",effect on oligosaccharide profile,"[1]; 0.5 mM, vs unsupplemented control",no effect on the oligosaccharide profile
O=C[C@H](O)[C@@H](O)[C@@H](O)[C@H](O)CO [galactose],galactosylation,[2]; supplemented with iron (ferric citrate),increased galactosylation is observed overall
same,dose dependence of galactosylation,"[2]; Example 8, galactose supplementation with ferric citrate",dose-dependence is observed
ferric citrate,N-glycan glycoform profile (overall result),"[2]; Example 2, concentration dependence below 1.0 mM",very similar results to ferric nitrate
same,increase in total NA1F and NA2F species,[3],dose-dependence effect
same,increase of peak viable cell density,[4],4 ×10^6 cells/mL
same,galactosylation,"[1]; increased concentration (0.1, 1 mM)",increased galactosylation
ferrous sulfate,increase in NA2F species,[2]; [5],3 fold
same,increase in total NA1F species,[2]; [5],3 fold
transferrin: Recombinant transferrin (rTf) added to shake flask cultures,galactosylation,"[2]; added with varying concentrations of ferric citrate, without galactose",no impact was observed to the galactosylation
